Values quoted from earlier work as cited in patent publication EP1550371A2, “Pesticidal compositions comprising an oxathiin and triazole fungicides” (Tovarystvo z obmegenoyu vidpovidalnistyu "Prezence", priority 2003, dated 2005).

Assays:
[1] = at 25 °C
rabbits = conditions: in rabbits
rats [2] = conditions: in rats
quails = conditions: in quails
mice = conditions: in mice
powdery mildew and rust = conditions: in experiments
rats [3] = conditions: in rats; remark: listed apart in the source

SMILES | Solubility in acetone [1] | Solubility in dimethylsulfoxide [1] | Solubility in ethyl alcohol [1] | Solubility in gasoline [1] | Solubility in methyl alcohol [1] | Solubility in water [1] | skin-resorptive LD50 (rabbits) | oral LD50 (rats [2]) | oral LD50 (quails) | oral LD50 (mice) | Protective systemic action against powdery mildew and rust (powdery mildew and rust) | skin-resorbtive toxicity (rats [3])
CC1=C(C(=O)Nc2ccccc2)SCCO1 [Carboxin, 5,6-dihydro-2-methyl-1,4-oxathiin-3-carboxanyl] | 60% | 150% | 21% | 15% | 21% | 0.017% | above 8 g/kg | 3800 mg/kg | – | – | – | –
CC(C)(C)C(O)C(Oc1ccc(Cl)cc1)n1cncn1 (stereo not shown) [Triadimenol] | – | – | – | – | – | – | – | 700 to 1500 mg/kg | 10000 mg/kg | 1300 mg/kg | 4 to 8 days | above 5 g/kg
CC(C)(C)C(O)(CCc1ccc(Cl)cc1)Cn1cncn1 (stereo not shown) [Tebuconazol, RS-1-(4-chlorophenyl)-4,4-dimethyl-3-(1H-1,2,4-triazol-1-ilmethyl) pentan-3-ol] | – | – | – | – | – | – | – | 3900 to 5000 mg/kg | – | 1600 to 3900 mg/kg | – | above 5 g/kg
